Consider six compounds from PMC8350395, “Hsa-miR-4277 Decelerates the Metabolism or Clearance of Sorafenib in HCC Cells and Enhances the Sensitivity of HCC Cells to Sorafenib by Targeting cyp3a4” (Frontiers in Oncology, 2021).

Where two headings read alike, the source gives them in different places.

For data set [1], the system named is MHCC97-H cells. The data set is described as follows: Assessment of cell survival (MTT). Format: cell-based. The note with it: Homo sapiens, MHCC97H, 48 h. As to the method: (§1) After transfection or treated with potential inhibitor of cyp3a4, HCC cells were treated with a series concentrations of sorafenib, lenvatinib, cabozantinib, regorafenib, anlotinib, or apatinib (10 μmol/L, 3 μmol/L, 1 μmol/L, 0.3 μmol/L, 0.1 μmol/L, 0.03 μmol/L, or 0.01 μmol/L). After 48 h, MTT was performed to measure ell survival, and the IC50 value of each agent was calculated ([36]–[38]).
The *P < 0.05 being statistically significant between groups.

The next data set can be described thus: in vivo. The note with it: nude, mouse, in vivo, t1/2 of Sorafenib. As to the method: (§2) HCC cells were used to examine the rate of elimination of sorafenib ([18], [19], [34], [35]). For cell-based experiments, HCC cells were treated with 1 μmol/L of sorafenib for 12 h. After treatment, the cells were harvested at a series of time-points. For in vivo experimentation, HCC cells were cultured and subcutaneously injected into mice to generate tumors. When tumor volume reached 2000 mm^3, a solution of sorafenib was directly injected into the tumors. After injection, the tumors were excised at a series of time-points. Next, sorafenib was extracted from MHCC97-H cells or tumors using the acetonitrile (ACN). The sustaining amount of sorafenib at each time-point was measured using liquid chromatography–mass spectrometry/mass spectrometry (LC-MS/MS) and the in vitro/in vivo half-life of sorafenib was determined ([18], [19], [34], [35]).
(§3) SPSS 9.0 statistical software (IBM Corporation, Armonk, NY, USA) was used for all statistical analyses. Statistics were calculated using two-way ANOVA with the Bonferroni correction. IC50 values and the half-lie values (t1/2 values) were calculated using Origin software (Origin 6.1; OriginLab Corporation, Northampton, MA, USA). The *P < 0.05 being statistically significant between groups. The heat-map of the qPCR results were obtained according to the methods by Zhou et al. ([41]) and Yin et al. ([42]).

Data set [2] relates to subcutaneous tumors formed by MHCC97-H cells. The data set is described as follows: in vivo. As to the method: as §2, §3
The next data set is described as follows: in vitro. The note with it: human. Here is the method:
as §2, §3

A short description of data set [3]: Assessment of sorafenib elimination in cultured HCC cells (LC-MS/MS). Format: in vitro ADME. The note with it: human, read-out: t1/2 values (converted). Here is the method: as §2, §3
The next data set deals with BEL-7402. The data set is described as follows: Assessment of cell survival (MTT). It counts as cell-based. The note with it: Homo sapiens, Bel-7402, 48 h. As to the method: as §1, §3
For another data set, the system named is SMMC-7721. The data set is described as follows: Assessment of cell survival (MTT). It counts as cell-based. Particulars: Homo sapiens, SMMC-7721, 48 h. Here is the method:
as §1, §3

For data set [4], the system named is patients with advanced HCC. It counts as in vivo, human. The note with it: advanced HCC patients receiving sorafenib.
Excerpt: The endogenous mRNA levels of cyp3a4 in HCC clinical specimens were identified using quantitative polymerase chain reaction (qPCR) in accordance with methods described by Wang et al. ([20]) and Ma et al. ([20], [25]). […] The results (the relative expression level [folds of β-Actin]) of PXR or CAR was shown as heat-map.
Data set [5] has as its system MHCC97-H cells. The data set is described as follows: Nude mouse subcutaneous tumor model. It counts as in vivo, nude mice. Here is the method:
All animal experiments were reviewed approved by the Institutional Animal Care and Use Committee, the Fifth Medical Center, Chinese PLA. All animal experiments were performed in accordance with the UK Animals (Scientific Procedures) Act, 1986 and the associated guidelines. Female nude mice were purchased from the Si-Bei-Fu Corporation, Beijing China. Following transfection, MHCC97-H cells were prepared as a single-cell suspension and subcutaneously injected into nude mice ([39], [40]). The mice orally received sorafenib once every two days. Tumors from the mice were harvested, and the volumes and weights were measured ([39], [40]).

The mark [6] stands for this setting: control miRNA, read-out: IC50 values of the agents on MHCC97-H cells.
Where [7] appears, read: miR-4277 + CYP3A4^Mut, read-out: IC50 values of the agents on MHCC97-H cells.
Setting [8] is: miR-4277 + CYP3A4^Mut-1, read-out: IC50 values of the agents on MHCC97-H cells.
[9] abbreviates: miR-4277 + CYP3A4^Mut-2, read-out: IC50 values of the agents on MHCC97-H cells.
Setting [10] is: miR-4277, read-out: IC50 values of the agents on MHCC97-H cells.
Setting [11] is: CYP3A4 mRNA expression High (n = 26).
The mark [12] stands for this setting: CYP3A4 mRNA expression Low (n = 26).

The term IC50 denotes the concentration needed to halve the response being measured. For `COc1cc2c(Oc3ccc4[nH]c(C)cc4c3F)ccnc2cc1OCC1(N)CC1` [Anlotinib], the half-maximal inhibitory concentration (IC50) in the data set with MHCC97-H cells [1] (setting [6]) stood at 750 ± 30 nM; in the data set with MHCC97-H cells [1] (setting [7]), 780 ± 550 nM; in the data set on MHCC97-H cells [1] (setting [8]), 300 ± 120 nM; in the data set on MHCC97-H cells [1] (setting [9]), 450 ± 350 nM; with MHCC97-H cells [1] (setting [10]) it was 100 ± 10 nM.
The matching figures for `N#CC1(c2ccc(NC(=O)c3cccnc3NCc3ccncc3)cc2)CCCC1` [Apatinib]: 960 ± 330 nM, 980 ± 370 nM, 520 ± 270 nM, 460 ± 300 nM and 260 ± 70 nM.
With `COc1cc2nccc(Oc3ccc(NC(=O)C4(C(=O)Nc5ccc(F)cc5)CC4)cc3)c2cc1OC` [Cabozantinib], the half-maximal inhibitory concentration (IC50) in the data set with MHCC97-H cells [1] (setting [6]) was 510 ± 190 nM; in the data set with MHCC97-H cells [1] (setting [7]), 560 ± 150 nM; in the data set on MHCC97-H cells [1] (setting [8]) it was 250 ± 60 nM; in the data set with MHCC97-H cells [1] (setting [9]), 300 ± 210 nM; with MHCC97-H cells [1] (setting [10]), 100 ± 40 nM.
Consider `COc1cc2nccc(Oc3ccc(NC(=O)NC4CC4)c(Cl)c3)c2cc1C(N)=O` [Lenvatinib], for which the IC50 turned out to be 550 ± 200 nM in the data set on MHCC97-H cells [1] (setting [6]); 600 ± 200 nM with MHCC97-H cells [1] (setting [7]); 410 ± 10 nM in the data set on MHCC97-H cells [1] (setting [8]); 280 ± 110 nM in the data set with MHCC97-H cells [1] (setting [9]); 120 ± 60 nM in the data set with MHCC97-H cells [1] (setting [10]).
Taken in the same sequence, the figures for `CNC(=O)c1cc(Oc2ccc(NC(=O)Nc3ccc(Cl)c(C(F)(F)F)c3)c(F)c2)ccn1` [Regorafenib] were 670 ± 490 nM, 710 ± 280 nM, 330 ± 320 nM, 350 ± 90 nM and 220 ± 40 nM.
As for `CNC(=O)c1cc(Oc2ccc(NC(=O)Nc3ccc(Cl)c(C(F)(F)F)c3)cc2)ccn1` [Sorafenib], the half-life in “in vivo” was 45.7 ± 5.31 h. Moreover, the “t1/2 of Sorafenib” value was 72.79 ± 7.52 h in [2] (nude, mouse, in vivo); 52.38 ± 16.19 h in data set [2] (subcutaneous MHCC97-H tumors, miR-4277 + CYP3A4^Mut-1, sorafenib injected into tumors); 36.67 ± 12.58 h in [2] (subcutaneous MHCC97-H tumors, miR-4277 + CYP3A4^Mut, sorafenib injected into tumors). Further, the half-life at 1 μmol/L in “in vitro” was 21.6 ± 1.34 h; in “in vitro” (MHCC97-H cells (HCC cell line)), 23.6 ± 0.7 h; in the data set “in vitro” (MHCC97-H cells (HCC cell line) transfected with miR-4277), 38.5 ± 9.97 h; in “in vitro” (MHCC97-H cells (HCC cell line) with miR-4277 + CYP3A4^Mut), 19.9 ± 2.71 h; in “in vitro” (MHCC97-H cells (HCC cell line) with miR-4277 + CYP3A4^Mut-1), 22.1 ± 6.59 h; in the data set “in vitro” (MHCC97-H cells (HCC cell line) with miR-4277 + CYP3A4^Mut-2), 24.7 ± 8.63 h. Further, the half-life at 1 μmol/L in [3] (BEL-7402 cells (HCC cell line) with miR-4277 + CYP3A4^Mut, BEL-7402, miR-4277 + CYP3A4^Mut) was 26.4 ± 3.79 h; in [3] (BEL-7402 cells (HCC cell line) with miR-4277, BEL-7402, miR-4277) it was 42.4 ± 3.33 h; in data set [3] (BEL-7402 cells (HCC cell line), BEL-7402, control) it was 28.2 ± 8.67 h; in [3] (HepG2 cells (HCC cell line) with miR-4277 + CYP3A4^Mut, HepG2, miR-4277 + CYP3A4^Mut), 25.7 ± 4.47 h; in data set [3] (HepG2 cells (HCC cell line) with miR-4277, HepG2, miR-4277), 56.4 ± 1.9 h; in data set [3] (HepG2 cells (HCC cell line), HepG2, control), 30.3 ± 3.31 h. For the same compound, the half-life at 1 μmol/L in data set [3] (SMMC-7721 cells (HCC cell line) with miR-4277 + CYP3A4^Mut, SMMC-7721, miR-4277 + CYP3A4^Mut) was 27.4 ± 6.93 h; in data set [3] (SMMC-7721 cells (HCC cell line) with miR-4277, SMMC-7721, miR-4277), 46.2 ± 2.88 h; in [3] (SMMC-7721 cells (HCC cell line), SMMC-7721, control), 25.7 ± 2.43 h. Also, the IC50 in the data set with MHCC97-H cells [1] (MHCC97-H cells, control miRNA, read-out: IC50 of Sorafenib) turned out to be 700 ± 90 nM; with MHCC97-H cells [1] (MHCC97-H cells, miR-4277 + CYP3A4^Mut, read-out: IC50 of Sorafenib), 920 ± 200 nM; in the data set on MHCC97-H cells [1] (MHCC97-H cells, miR-4277 + CYP3A4^Mut-1, read-out: IC50 of Sorafenib) it was 220 ± 140 nM; in the data set with MHCC97-H cells [1] (MHCC97-H cells, miR-4277 + CYP3A4^Mut-2, read-out: IC50 of Sorafenib) it was 350 ± 50 nM; in the data set on MHCC97-H cells [1] (MHCC97-H cells, miR-4277, read-out: IC50 of Sorafenib) it was 150 ± 10 nM; with MHCC97-H cells [1] (Solvent control (no CYP3A4 inhibitor), read-out: Sorafenib on MHCC97-H IC50 values) it was 680 ± 110 nM. The IC50 in the data set on BEL-7402 (BEL-7402, control) was 1790 ± 180 nM; with BEL-7402 (BEL-7402, miR-4277), 280 ± 50 nM; with BEL-7402 (BEL-7402, miR-4277 + CYP3A4^Mut) it was 2880 ± 350 nM; in the data set with SMMC-7721 (SMMC-7721, control), 1950 ± 540 nM; in the data set on SMMC-7721 (SMMC-7721, miR-4277), 730 ± 330 nM; with SMMC-7721 (SMMC-7721, miR-4277 + CYP3A4^Mut) it was 1920 ± 550 nM. The “OS (overall survival)” value is 8.0 M in [4] (setting [11]) and 15.0 M in [4] (setting [12]). Besides, the figures for the “TTP (time to progress)” value in data set [4] (setting [11]) and in [4] (setting [12]) were 9.0 M and 11.0 M, respectively. For the same compound, the “subcutaneous growth of MHCC97-H cells” value with MHCC97-H cells [5] (0.5 mg/kg dose of sorafenib, oral, control-transfected cells) was “had no effect”. The “subcutaneous growth of HCC cells (tumor volumes, tumor weights)” value in the data set with MHCC97-H cells [5] (oral sorafenib once every two days, indicated doses, nude mice) is recorded as “inhibited the subcutaneous growth of HCC cells in a dose-dependent manner”.
